Laboratory results taken from patent US20250319094A1, “COMPOSITION FOR PREVENTING OR TREATING ATOPIC DERMATITIS” (Yonsei University BioHealth Technology Holdings, Inc., priority 2022, published 2025).

How the values were obtained:
[1] = test system: atopic dermatitis-induced flaky tail mice; assay: Treatment effect in HDM-induced atopic dermatitis mouse model (clinical photograph, dermatitis score); format: in vivo; settings: 50 μM or 100 μM, 200 μL on back, 4 weeks
Method: The backs of the mice were shaved and exfoliated with a 4% diluted sodium dodecyl sulfate solution (SIGMA Lot #BCCD5615) once every 3 days to remove dead skin cells, and House Dust Mite (HDM), a typical trigger/exacerbator of atopic dermatitis, was topically applied to the mice to induce atopic skin lesions. The house dust mite ointment used was Atopic dermatitis challenging ointment from Biostir (Osaka, Japan), and atopic dermatitis-induced mice were prepared as described above (see FIG. 1).
In order to determine whether the bentamapimod drug discovered above has a therapeutic effect on atopic dermatitis, experiments were conducted using the mouse model prepared in the preliminary example and divided into control and experimental groups according to the timeline diagram shown in FIG. 4. […] To further verify the treatment effect, the flaky tail Mice dermatitis score of the atopic dermatitis mouse model according to the drug treatment was calculated by Wilcoxon-signed rank test and shown in FIG. 6. […]

[2] = test system: skin-specific T cells; assay: Flow cytometry of skin T cells from atopic dermatitis patient skin after drug application; format: cell-based, human; settings: immune cell fractions from skin tissue of atopic dermatitis patients
Method: To test the effect of the candidate drug on skin-specific T cells in human skin tissue, a single suspension was prepared using skin from a patient with atopic dermatitis. T cells were stained using anti-CD3, anti-CD4, anti-CD8, and anti-CD45 antibodies, and flow cytometry was performed on skin T cells using the skin TRM markers CD69 and CD103 to observe changes in the number and distribution of skin-specific T cells in response to drug application.

[3] = test system: skin-specific T cells; assay: Flow cytometry of T cell fractions in skin of atopic dermatitis mouse model; format: in vivo; settings: 4 weeks
Method: (§1) To test the effect of the newly discovered bentamapimod drugs on skin-specific T cells, flaky tail mice were induced with atopic skin lesions using HDM three times a week until week 4 of the experiment as described in the Preparations and Examples above, and then treated with each drug at different concentrations for another 4 weeks. To determine changes in skin-specific T cells in each animal, single suspensions were then prepared from spleen, skin, and lymph nodes, and T cells were stained with anti-CD3, anti-CD4, anti-CD8, and anti-CD45 antibodies. Flow cytometric analysis of skin-specific T cells was performed using anti-CD69 and anti-CD103 antibodies to observe changes in the number and distribution of skin-specific T cells in response to drug application.

[4] = test system: atopic dermatitis-induced flaky tail mice; assay: Acute wiping (pain) and scratching (itching) behavior after drug application; format: in vivo, mouse
Description: The existing drug dexamethasone is widely used as a treatment for atopic dermatitis, but long-term use causes various local side effects such as skin atrophy, dilated skin capillaries, and hypopigmented spots. Tacrolimus, which was developed to minimize these long-term local side effects, solved the problem of long-term and permanent local side effects of steroid drugs, but short-term skin irritation symptoms are emerging as a new problem, as it is known that about 50% of patients experience burning and skin rash at the beginning of application. Therefore, it is necessary to overcome the skin irritation side effects, and we wanted to check whether the newly discovered drug of bentamapimod can resolve the above side effects while maintaining the effectiveness of the animal drug through behavioral analysis of pain and itching using Flaky Tail mice. Wiping the face with the forelegs was interpreted as a behavioral measure of pain in mice, and scratching with the hind legs was interpreted as a behavioral measure of itching (J Vis Exp. 2019 Sep. 27; (151)). […] Flaky tail mice were treated with 200 μL of the test agent per group for one week to facilitate comparison, and the number of itches and pain behaviors were quantified and graphed (see FIG. 8a and FIG. 8b).

[5] = test system: flaky tail mice; assay: Chronic itch behavior before and after application of test drug; format: in vivo, mouse; settings: drug 3 times a week for 4 weeks after 4 weeks HDM; before vs after application
Method: Additional experiments were performed to compare the ITCH behavior before and after application of the dexamethasone, tacrolimus, and bentamapimod agents disclosed above. Specifically, atopic dermatitis was induced by applying 100 mg of HDM ointment to the backs of flaky tail mice for 4 weeks, after which drug treatments were applied 3 times a week for 4 weeks, and the chronic itch behavior before and after application of these test drugs was quantified and graphed (see FIG. 9a and FIG. 9b).

[6] = test system: T cells in skin-draining lymph nodes; assay: FACS of T cell fractions in skin-draining lymph nodes of atopic dermatitis mouse model; format: in vivo
Method: as §1

[7] = test system: normal skin tissue; assay: Cell viability (CCK-8) cytotoxicity on normal skin tissue cells; format: cell-based; settings: overnight
Method: We sought to determine the optimal concentration of the drug Bentamapimod identified above that would not affect the cytotoxicity of the drug. To determine the final concentration of the drug, normal skin tissue was seeded as cells in […] 96-well plates using 5% (v/v) RPMI1640 medium (LONZA) and 1% penicillin/streptomycin medium and treated with bentamapimod at concentrations of 1 μM, 10 μM, 50 μM, 100 μM, and 200 μM, respectively, and incubated overnight in a 37° C. incubator. Then, 10 μl of Cell Counting Kit-8 drug (Dojindo Lot. PR863) was seeded into 96-well plates and the absorbance was measured at […] after 2 h.

[8] = at the beginning of application; cited from earlier work

For `N#CC(c1ccnc(OCc2ccc(CN3CCOCC3)cc2)n1)c1nc2ccccc2s1` (stereo not drawn) [bentamapimod, α-[2-[[4-(4-morpholinylmethyl)phenyl]methoxy]-4-pyrimidinyl]-2-benzothiazoleacetonitrile], the “atopic dermatitis scores (Flaky tail Mice dermatitis score)” value ([1]; FIG. 6) was “equivalent to or better than those of conventional drugs”, the “treatment effect on atopic dermatitis skin lesions (wounding, dryness, desquamation, erythema, hemorrhage, edema)” value ([1]; compared to conventional drugs, FIG. 5) was “clinically significant treatment effect” and the “percentage of skin-specific T cells” value ([2]; 50 μM) was “significant dose-dependent decrease”. For the same compound, the “percentage of skin-specific T cells” value ([2]; 100 μM) was “significant dose-dependent decrease”, the “percentage of CD3+, CD4+ T cells in the skin” value ([3]; 50 μM) was “significantly reduced in a dose-dependent manner” and the “percentage of CD3+, CD4+ T cells in the skin” value ([3]; 100 μM) was “significantly reduced in a dose-dependent manner”. For the same compound, the “percentage of CD69+ T cells and CD103+ T cells (skin-resident T cells)” value ([3]; skin) was “significantly reduced”, the “percentage of skin-specific T cells compared to the control 0.1% dexamethasone group” value ([3]; skin) was “significantly reduced” and the “local irritation symptoms such as itching and pain” value ([4]; 50 μM and 100 μM) was “did not cause local irritation symptoms”. The “number of scratching and wiping behaviors versus control D.W group” value ([4]; 50 μM, 200 μL on back) was “no difference”, the “number of scratching and wiping behaviors versus control D.W group” value ([4]; 100 μM, 200 μL on back) was “no difference” and the “chronic scratching behavior, treatment effect” value [5] was “treatment effect was particularly significant”. The “CD3+ T cells in skin-draining lymph nodes” value ([6]; 100 μM) was “statistically significantly lower”, the “CD3+ CD4+ CD69+ CD103+ T cells” value ([6]; 100 μM, skin-draining lymph nodes) was “statistically significantly lower” and the “fraction of T cells expressing CD69 among CD3+ CD4+ T cells” value ([6]; skin-draining lymph nodes) was “reduced”. The “percentage of T cells compared to the 0.1% dexamethasone group” value ([6]; skin-draining lymph nodes) was “significantly reduced”, the cell viability ([7]; 50 μM) was “greater than 90%” and the cell viability ([7]; 100 μM) was “greater than 90%”.

In the case of `C=CC[C@@H]1/C=C(\C)C[C@H](C)C[C@H](OC)[C@H]2O[C@@](O)(C(=O)C(=O)N3CCCC[C@H]3C(=O)O[C@H](/C(C)=C/[C@@H]3CC[C@@H](O)[C@H](OC)C3)[C@H](C)[C@@H](O)CC1=O)[C@H](C)C[C@@H]2OC` [tacrolimus], the “patients who experience burning and skin rash” value [8] is given as “about 50%”, the “time at which wiping behaviors peaked” value ([4]; 0.1% concentration, 200 μL on back) is given as 30 min and the “number of scratching behaviors” value ([4]; 0.1% concentration, 200 μL on back, in 30 minutes) is given as 17 times.
